Each block holds one compound with its values, some of them ahead of it.
Target: T1, α4β1 integrin (Homo sapiens, UniProt P05556+P13612)
T1 construct: endogenous in cells; host or cells: Ramos cells
Experiment: Adhesion of calcein-labeled Ramos cells to CS1 (fibronectin) peptide conjugated ovalbumin
Format: cell-based
Conditions: Ramos cell adhesion to CS1 conjugated ovalbumin
How it was run: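 Plates bearing CS1 fibronectin peptide coupled to ovalbumin (0.5 μg/ml coat, 3% BSA block) received calcein-labelled Ramos cells plus compound (100 μM stated) for 30 min at 37 °C. Buffer was TBS pH 7.5 with 1 mM Mg2+, Ca2+, Mn2+; bound cells quantified by fluorescence after lysis; […].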

[1] = Table 5, dose required to give 50% inhibition
[2] = Table 7, dose required to give 50% inhibition

T1 sequence (P13612 34-1032): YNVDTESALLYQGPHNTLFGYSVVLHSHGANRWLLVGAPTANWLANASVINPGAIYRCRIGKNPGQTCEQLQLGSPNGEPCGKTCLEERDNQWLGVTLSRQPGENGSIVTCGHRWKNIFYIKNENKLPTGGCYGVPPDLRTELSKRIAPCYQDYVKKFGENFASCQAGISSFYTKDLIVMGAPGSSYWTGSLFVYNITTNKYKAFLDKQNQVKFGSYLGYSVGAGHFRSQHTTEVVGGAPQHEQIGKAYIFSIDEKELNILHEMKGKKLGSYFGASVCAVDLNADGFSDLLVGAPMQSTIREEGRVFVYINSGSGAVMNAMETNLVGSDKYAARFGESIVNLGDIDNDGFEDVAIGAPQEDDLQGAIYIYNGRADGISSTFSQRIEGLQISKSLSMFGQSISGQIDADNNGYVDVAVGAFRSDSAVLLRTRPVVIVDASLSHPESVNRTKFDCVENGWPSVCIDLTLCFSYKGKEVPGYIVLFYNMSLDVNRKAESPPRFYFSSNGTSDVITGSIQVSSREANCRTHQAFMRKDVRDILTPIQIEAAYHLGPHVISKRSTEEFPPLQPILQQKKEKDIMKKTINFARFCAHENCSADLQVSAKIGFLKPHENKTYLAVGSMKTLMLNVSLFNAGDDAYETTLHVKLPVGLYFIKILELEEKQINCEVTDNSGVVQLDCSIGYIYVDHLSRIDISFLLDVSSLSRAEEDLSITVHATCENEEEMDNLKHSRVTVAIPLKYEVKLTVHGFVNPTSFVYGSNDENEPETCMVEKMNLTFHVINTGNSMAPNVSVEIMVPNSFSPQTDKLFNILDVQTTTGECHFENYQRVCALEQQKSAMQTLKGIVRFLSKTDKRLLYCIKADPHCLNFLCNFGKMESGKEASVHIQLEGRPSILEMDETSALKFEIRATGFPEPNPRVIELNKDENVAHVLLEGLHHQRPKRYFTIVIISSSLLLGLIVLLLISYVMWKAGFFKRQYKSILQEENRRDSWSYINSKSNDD
T1 sequence (P05556 21-798): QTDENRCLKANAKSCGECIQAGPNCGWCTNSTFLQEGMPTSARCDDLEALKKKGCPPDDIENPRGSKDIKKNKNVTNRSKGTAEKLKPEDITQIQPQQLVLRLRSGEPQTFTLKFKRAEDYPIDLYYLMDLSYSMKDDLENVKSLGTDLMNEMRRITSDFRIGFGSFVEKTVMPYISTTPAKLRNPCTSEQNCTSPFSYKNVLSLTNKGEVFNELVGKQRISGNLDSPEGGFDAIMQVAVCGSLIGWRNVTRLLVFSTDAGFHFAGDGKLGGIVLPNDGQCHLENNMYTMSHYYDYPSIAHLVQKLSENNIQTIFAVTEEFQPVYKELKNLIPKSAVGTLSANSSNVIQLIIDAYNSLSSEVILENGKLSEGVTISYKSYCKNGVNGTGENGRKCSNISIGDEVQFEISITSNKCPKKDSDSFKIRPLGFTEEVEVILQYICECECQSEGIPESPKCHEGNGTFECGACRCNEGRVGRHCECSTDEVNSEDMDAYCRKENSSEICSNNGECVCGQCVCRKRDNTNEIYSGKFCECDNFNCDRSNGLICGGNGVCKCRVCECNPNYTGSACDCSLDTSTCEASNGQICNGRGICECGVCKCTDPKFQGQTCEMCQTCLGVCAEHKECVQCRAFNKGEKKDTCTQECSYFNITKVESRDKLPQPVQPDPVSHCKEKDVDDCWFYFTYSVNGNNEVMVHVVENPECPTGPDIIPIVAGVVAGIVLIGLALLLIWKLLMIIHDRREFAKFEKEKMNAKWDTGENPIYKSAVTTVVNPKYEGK

- IC50 (Table 6, 30 minutes at 37° C.): 6 nM
Compound: COc1cc([C@H](CC(=O)O)NC(=O)Nc2c(O)c(C)cn(Cc3c(Cl)cccc3OC)c2=O)ccc1C

- IC50 (Table 4, 30 minutes at 37° C.): 800 nM
Compound: O=C(O)C[C@H](NC(=O)Nc1cccn(Cc2cccc(Cl)c2)c1=O)c1ccc2c(c1)OCO2

- IC50 (Table 6, 30 minutes at 37° C.): 30 nM
Compound: O=C(O)C[C@H](NC(=O)Nc1c(O)ccn(Cc2ccccc2Cl)c1=O)c1ccc(OC(F)F)cc1

- IC50 [2]: 22 nM
Compound: Cc1ccc([C@H](CC(=O)O)NC(=O)Nc2c(O)c(C)cn(Cc3c(Cl)cccc3OCC(C)C)c2=O)cc1

- IC50 [2]: 15 nM
Compound: C[C@H](CC(=O)O)NC(=O)Nc1c(O)c2c(n(Cc3ccccc3Cl)c1=O)CCC2

- IC50 (Table 4, 30 minutes at 37° C.): 40 nM
Compound: COc1ccc([C@H](CC(=O)O)NC(=O)Nc2cccn(Cc3ccccc3Cl)c2=O)cc1C

- IC50 [1]: 130 nM
Compound: Cc1ccc([C@H](CC(=O)O)NC(=O)Nc2c(O)ccn(Cc3cccc(Cl)c3Cl)c2=O)cc1

- IC50 (Table 6, 30 minutes at 37° C.): 20 nM
Compound: Cc1ccc([C@H](CC(=O)O)NC(=O)Nc2c(O)c(C)cn(Cc3cc(F)ccc3C)c2=O)cc1

- IC50 (Table 3, 30 minutes at 37° C.): 20 nM
Compound: Cc1ccc([C@H](CC(=O)O)NC(=O)Nc2c(NCc3cccnc3)ccn(Cc3ccccc3Cl)c2=O)cc1

- IC50 [1]: 35 nM
Compound: Cc1ccc([C@H](CC(=O)O)NC(=O)Nc2c(O)ccn(Cc3ccc(S(=O)(=O)N(C)C)cc3)c2=O)cc1

The next lines start with the compound.

Compound: CCCc1cn(Cc2ccccc2Cl)c(=O)c(NC(=O)N[C@@H](CC(=O)O)c2ccc(OCC)c(OCC)c2)c1O [(3S)-3-[({[1-(2-chlorobenzyl)-4-hydroxy-2-oxo-5-propyl-1,2-dihydropyridin-3-yl]amino}carbonyl)amino]-3-(3,4-diethoxyphenyl)propanoic acid]
- IC50 [1]: 5 nM

Compound: COc1cc([C@H](CC(=O)O)NC(=O)Nc2c(O)c(C)cn(Cc3ccccc3Cl)c2=O)ccc1C
- IC50 [1]: 20 nM

Compound: Cc1ccc([C@H](CC(=O)O)NC(=O)Nc2c(O)ccn(Cc3cc(F)ccc3F)c2=O)cc1
- IC50 [1]: 15 nM

Compound: COc1ccc([C@H](CC(=O)O)NC(=O)Nc2c(O)c(C)cn(Cc3ccccc3Cl)c2=O)cc1 [(3S)-3-[({[1-(2-chlorobenzyl)-4-hydroxy-5-methyl-2-oxo-1,2-dihydropyridin-3-yl]amino}carbonyl)amino]-3-(4-methoxyphenyl)propanoic acid]
- IC50 (Table 6, 30 minutes at 37° C.): 4 nM

Compound: Cc1ccc([C@H](CC(=O)O)NC(=O)Nc2c(O)c(C)cn(Cc3c(F)cccc3C(F)(F)F)c2=O)cc1
- IC50 (Table 6, 30 minutes at 37° C.): 100 nM

Compound: CCCc1ccc([C@H](CC(=O)O)NC(=O)Nc2c(O)c3c(n(Cc4ccccc4Cl)c2=O)CCC3)cc1
- IC50 [2]: 17 nM

Compound: O=C(O)C[C@H](NC(=O)Nc1cccn(Cc2cccs2)c1=O)c1ccc2c(c1)CCO2
- IC50 (Table 4, 30 minutes at 37° C.): 140 nM

Compound: O=C(O)C[C@H](NC(=O)Nc1cccn(CCCOc2ccccc2)c1=O)c1ccc2c(c1)OCO2
- IC50 (Table 4, 30 minutes at 37° C.): 14000 nM

Compound: COc1ccc(-c2ccc([C@H](CC(=O)O)NC(=O)Nc3c(O)c(C)cn(Cc4ccccc4Cl)c3=O)cc2)cc1
- IC50 [2]: 23 nM

Compound: Cc1ccc([C@H](CC(=O)O)NC(=O)Nc2c(CC(C)C)nc(C)n(Cc3ccccc3)c2=O)cc1 [(3S)-3-[({[2-methyl-4-(2-methylpropyl)-6-oxo-1-(phenylmethyl)-1,6-dihydro-5-pyrimidinyl]amino}carbonyl)amino]-3-(4-methylphenyl)propanoic acid]
- IC50 (Table 3, 30 minutes at 37° C.): 10 nM

Compound: CCOc1cc(OCC)cc([C@H](CC(=O)O)NC(=O)Nc2c(O)c(C)cn(Cc3ccccc3Cl)c2=O)c1
- IC50 (Table 6, 30 minutes at 37° C.): 3 nM

Compound: Cc1ccc([C@H](CC(=O)O)NC(=O)Nc2cccn(Cc3cc(Cl)ccc3Cl)c2=O)cc1
- IC50 (Table 4, 30 minutes at 37° C.): 150 nM

Compound: Cc1cn(Cc2ccccc2Cl)c(=O)c(NC(=O)NC(CC(=O)O)c2ccco2)c1O (stereo not shown)
- IC50 [2]: 4 nM

Compound: Cc1cn(Cc2ccccc2Cl)c(=O)c(NC(=O)N[C@@H](CC(=O)O)c2cccc(OC3CCCC3)c2)c1O
- IC50 (Table 6, 30 minutes at 37° C.): 15 nM

Compound: CCCc1ccc([C@H](CC(=O)O)NC(=O)Nc2c(O)c(C)cn(Cc3ccccc3Cl)c2=O)cc1
- IC50 [2]: 12 nM

Compound: CCOc1cccc(Cl)c1Cn1cc(C)c(O)c(NC(=O)N[C@@H](CC(=O)O)c2cccc(C(F)(F)F)c2)c1=O
- IC50 [2]: 3 nM

Compound: Cc1ccc(C[C@@H](CC(=O)O)NC(=O)Nc2c(O)ccn(Cc3ccccc3Cl)c2=O)cc1
- IC50 [1]: 30000 nM

Compound: COc1cccc(OC)c1-c1ccc([C@H](CC(=O)O)NC(=O)Nc2c(O)c(C)cn(Cc3ccccc3Cl)c2=O)cc1
- IC50 [2]: 40 nM
